Where “and” joins values, the source holds several entries; their conditions need not be identical. Identical values can stand only once. Entries after “also recorded” stand apart in the source; their conditions may differ.
Tests used:
[1] = target: T1, human anti-Müllerian hormone type II receptor (AMHR-II) (Homo sapiens, UniProt Q16671); conditions: compared with unmutated humanized and chimeric 12G4; cited from earlier work
T1 sequence (Q16671 18-573): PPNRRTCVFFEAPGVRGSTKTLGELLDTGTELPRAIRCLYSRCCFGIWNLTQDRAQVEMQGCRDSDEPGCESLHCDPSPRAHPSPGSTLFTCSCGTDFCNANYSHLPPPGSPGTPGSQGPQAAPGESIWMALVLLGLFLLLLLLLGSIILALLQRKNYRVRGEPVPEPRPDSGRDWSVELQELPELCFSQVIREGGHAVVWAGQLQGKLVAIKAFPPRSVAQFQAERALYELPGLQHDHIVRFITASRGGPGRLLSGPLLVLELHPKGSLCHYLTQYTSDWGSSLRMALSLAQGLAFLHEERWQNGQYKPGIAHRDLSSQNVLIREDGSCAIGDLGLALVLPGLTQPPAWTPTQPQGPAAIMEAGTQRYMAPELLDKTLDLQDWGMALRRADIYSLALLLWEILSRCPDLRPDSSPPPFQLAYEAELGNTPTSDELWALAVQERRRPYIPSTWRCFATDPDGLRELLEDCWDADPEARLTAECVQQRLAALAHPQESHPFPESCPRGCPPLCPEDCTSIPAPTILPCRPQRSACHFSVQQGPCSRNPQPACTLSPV

[2] = tested on: Cov434-AMHRII Asc1a5 (cell line of human ovarian cancer transfected with cDNA AMHRII); experiment: Anti-tumour activity of 3C23K alone or with carboplatin in Cov434-AMHRII Asc1a5 xenograft (tumour volume, T/C ratio, statistical analysis); format: in vivo, female Swiss nude mouse
Description: The 3C23K antibody was evaluated according to the following scheme: 2 times per week for 6 weeks, for a total of 12 injections at about 10 mg/kg/injection, said administration regimen being designated below as “Q3-4D12”. Another group of mice was treated with an irrelevant antibody LFB-R565, administered at about 10 mg/kg/injection, according to the regimen Q3-4D12.
Carboplatin was evaluated, at a sub-optimum dose, i.e. about 60 mg/kg/injection, according to the following scheme: once a week, for 4 weeks, said administration regimen being designated below as “Q7D4”.
Carboplatin was also evaluated in combination with the 3C23K antibody or with the irrelevant antibody LFB-R565. Carboplatin was administered at about 60 mg/kg/injection according to the Q7D4 regimen and the 3C23K antibody or the irrelevant antibody LFB-R565 at about 10 mg/kg/injection according to the regimen Q3-4D12.
The mice were randomized on D11, when the volume of the tumours was between 50 and 158 mm^3, and the treatments began on D13 (9 mice per group).
The tumours were usually measured twice weekly.
The curves of the individual volume of the tumours were plotted.
In one experiment with 9 mice per group, the curves and analyses were therefore stopped when fewer than 8 values per group had been obtained (8 mice alive).
A Kruskal-Wallis test was also carried out.

[3] = D11, randomization, before treatment

Substance: 3C23K: mutated humanized 12G4 monoclonal antibody binding AMHR-II, produced by the 3C23K clone; light chain SEQ ID NO: 11, heavy chain SEQ ID NO: 13
- Affinity for AMHR-II (in words) [1]: affinity far better than that of the unmutated humanized 12G4 antibody
- Individual tumour volume [2, 3]: 98 mm^3 and 90 mm^3 and 61 mm^3 and 80 mm^3 and 57 mm^3 and 147 mm^3 and 113 mm^3 and 72 mm^3
- Mean tumour volume [2, 3]: 88 mm^3
- Median tumour volume [2, 3]: 80 mm^3
- Individual tumour volume ([2]; D14): 104 mm^3 and 179 mm^3 and 60 mm^3 and 72 mm^3 and 67 mm^3 and 216 mm^3 and 166 mm^3 and 84 mm^3
- Mean tumour volume ([2]; D14): 111 mm^3
- Median tumour volume ([2]; D14): 84 mm^3
- Individual tumour volume ([2]; D18): 72 mm^3 (2×) and 88 mm^3 and 36 mm^3 and 21 mm^3 and 41 mm^3 and 140 mm^3 and 80 mm^3
- Mean tumour volume ([2]; D18): 67 mm^3
- Median tumour volume ([2]; D18): 72 mm^3
- Individual tumour volume ([2]; D22): 60 mm^3 and 150 mm^3 and 30 mm^3 and 0 mm^3 and 36 mm^3 and 131 mm^3 and 77 mm^3 and 158 mm^3
- Mean tumour volume ([2]; D22): 79 mm^3
- Median tumour volume ([2]; D22): 70 mm^3
- Individual tumour volume ([2]; D25): 0 mm^3 (3×) and 126 mm^3 and 24 mm^3 and 180 mm^3 and 74 mm^3 and 216 mm^3
- Mean tumour volume ([2]; D25): 79 mm^3
- Median tumour volume ([2]; D25): 74 mm^3
- Individual tumour volume ([2]; D29): 0 mm^3 (2×) and 322 mm^3 and 27 mm^3 and 48 mm^3 and 225 mm^3 and 146 mm^3 and 385 mm^3
- Mean tumour volume ([2]; D29): 151 mm^3
- Median tumour volume ([2]; D29): 146 mm^3
- Individual tumour volume ([2]; D32): 0 mm^3 (2×) and 501 mm^3 and 27 mm^3 and 15 mm^3 and 275 mm^3 and 180 mm^3 and 644 mm^3
- Mean tumour volume ([2]; D32): 221 mm^3
- Median tumour volume ([2]; D32): 180 mm^3
- Individual tumour volume ([2]; D36): 0 mm^3 (3×) and 653 mm^3 and 87 mm^3 and 363 mm^3 and 182 mm^3 and 784 mm^3
- Mean tumour volume ([2]; D36): 278 mm^3
- Median tumour volume ([2]; D36): 182 mm^3
- Individual tumour volume ([2]; D39): 0 mm^3 (3×) and 784 mm^3 and 210 mm^3 and 315 mm^3 and 182 mm^3 and 1200 mm^3 and 546 mm^3
- Mean tumour volume ([2]; D39): 360 mm^3
- Median tumour volume ([2]; D39): 210 mm^3
- Individual tumour volume ([2]; D43): 0 mm^3 (3×) and 1171 mm^3 and 420 mm^3 and 631 mm^3 and 393 mm^3 and 1403 mm^3 and 731 mm^3
- Mean tumour volume ([2]; D43): 528 mm^3
- Median tumour volume ([2]; D43): 420 mm^3
- Individual tumour volume ([2]; D46): 0 mm^3 (3×) and 1683 mm^3 and 598 mm^3 and 504 mm^3 and 275 mm^3 and 1650 mm^3 and 518 mm^3
- Mean tumour volume ([2]; D46): 581 mm^3
- Median tumour volume ([2]; D46): 504 mm^3
- Individual tumour volume ([2]; D49): 0 mm^3 (3×) and 1870 mm^3 and 1188 mm^3 and 784 mm^3 and 655 mm^3 and 2646 mm^3 and 945 mm^3
- Mean tumour volume ([2]; D49): 899 mm^3
- Median tumour volume ([2]; D49): 784 mm^3
- Anti-tumour activity (in words) ([2]; carboplatin study, comparator as stated in the sentence): significant anti-tumour activity; also recorded: anti-tumour effect greater than carboplatin; also recorded: exerts anti-tumour activity
- T/C ratio ([2]; relative to Control group, D11 (before treatment)): 88%
- T/C ratio ([2]; relative to Control group, D14): 52%
- T/C ratio ([2]; relative to Control group, D18): 33%
- T/C ratio ([2]; relative to Control group, D22): 18%
- T/C ratio ([2]; relative to Control group, D25): 17%
- T/C ratio ([2]; relative to Control group, D29): 23%
- T/C ratio ([2]; relative to Control group, D32): 18%
- T/C ratio ([2]; relative to Control group, D36): 12%
- T/C ratio ([2]; relative to LFB-R565, after D18 up to D36): less than 26%
- T/C ratio ([2]; relative to LFB-R565 group, D11 (before treatment)): 99%
- T/C ratio ([2]; relative to LFB-R565 group, D14): 55%
- T/C ratio ([2]; relative to LFB-R565 group, D18): 41%
- T/C ratio ([2]; relative to LFB-R565 group, D22): 26%
- T/C ratio ([2]; relative to LFB-R565 group, D25): 18%
- T/C ratio ([2]; relative to LFB-R565 group, D29): 21%
- T/C ratio ([2]; relative to LFB-R565 group, D32): 26%
- T/C ratio ([2]; relative to LFB-R565 group, D36): 10%
- T/C ratio ([2]; relative to carboplatin group, D11 (before treatment)): 99%
- T/C ratio ([2]; relative to carboplatin group, D14): 63%
- T/C ratio ([2]; relative to carboplatin group, D18): 64%
- T/C ratio ([2]; relative to carboplatin group, D22): 26%
- T/C ratio ([2]; relative to carboplatin group, D25): 31%
- T/C ratio ([2]; relative to carboplatin group, D29): 41%
- T/C ratio ([2]; relative to carboplatin group, D32): 39%
- T/C ratio ([2]; relative to carboplatin group, D36): 29%
- T/C ratio ([2]; relative to carboplatin group, D39): 32%
- T/C ratio ([2]; relative to carboplatin group, D43): 48%
- T/C ratio ([2]; relative to carboplatin group, from D22 to D39): less than 42%
- T/C ratio ([2]; relative to control, after D18 (from D22) up to D36): less than 23%

Reference: US10179816B2, “Pharmaceutical compositions comprising an antibody which binds the human anti-Müllerian hormone receptor type II” (LABORATOIRE FRANCAIS DU FRACTIONNEMENT DES BIOTECHNOLOGIES, priority 2011, dated 2019)
